Source: patent publication US20120207729A1, “SUBSTITUTED BENZOAZOLE PDE4 INHIBITORS FOR TREATING PULMONARY AND CARDIOVASCULAR DISORDERS” (DECODE GENETICS EHF, priority 2007, published 2012)

What was measured:
human PDE4B = human PDE4B (Homo sapiens, UniProt Q07343); assay: In-vitro real-time enzyme-coupled spectrophotometric assay for PDE4 enzymes; assay type: biochemical; conditions: NADH-coupled assay, absorbance at 340 nm, read-out: IC50 for human PDE4B isozyme
Procedure: (§1) In-vitro assay for PDE4 enzymes. The in-vitro activity of PDE4 enzymes and the in-vitro potency of therapeutic agents described in the present invention was measured using a real-time, enzyme-coupled spectrophotometric assay. By using three different coupling enzymes, the product of the PDE4 reaction is coupled to the oxidation of the reduced form β-nicotinamide adenine dinucleotide (NADH), which dissipation can be monitored spectrophotmetrically at […].
(§2) Assay description. Buffer A containing 50 mM Tris, pH 8.0, 16 mM MgCl2 and 80 mM KCl is prepared and stored at room temperature. Buffer B containing 50 mM Tris, pH 8.0 is prepared and stored at room temperature. Stock solutions of the following reagents are prepared in Buffer B and stored at −20° C.: Adenosine-5′-triphosphate (ATP), cyclic adenosine-5′-monophosphate (cAMP), phosphoenolpyruvate (PEP) and NADH. An assay mix is prepared by mixing Buffer A, […] (TCEP), ATP, PEP, NADH, myokinase (MK), pyruvate kinase (PK), lactate dehydroganese (LDH) and PDE4 to a final volume of 20 mL, which is enough for a single 96-well assay plate. Assay mix (180 μL) and test article (10 μL) in 1:1 DMSO/H2O mixture is pre-incubated at room temperature for 10 min. The enzymatic reaction is initiated by addition of cAMP (10 μL). Final concentration of all components in the assay (200 μL/well) are as follows: 10 mM MgCl2, 50 mM KCl, 5 mM TCEP, 2.5% DMSO, 0.4 mM NADH, 1 mM PEP, 0.04 mM ATP, 5 units MK, 1 unit PK, 1 unit LDH and appropriate amount of PDE4. Reaction progress curves are monitored in a plate reader capable of measuring light absorbance at 340 nm. A decrease in light absorbance at 340 nm is due to oxidation of NADH. Positive controls containing no test article and negative controls containing no test article and no cAMP are included on every assay plate. Reaction rates are determined from the slopes of the linear portions of the progress curves. All data is percent normalized with respect to controls and presented as percent inhibition. Compounds BB-01, BB-02, BB-03, BB-04, BB-05, BB-08, BB-09 gave IC50<5 uM for human PDE4D and PDE4B isozymes.

human PDE4D = human PDE4D (Homo sapiens, UniProt Q08499); assay: as above; assay type: biochemical; conditions: NADH-coupled assay, absorbance at 340 nm, read-out: IC50 for human PDE4D isozyme
Procedure: as §1, §2

Chain of human PDE4B (Q07343 whole entry): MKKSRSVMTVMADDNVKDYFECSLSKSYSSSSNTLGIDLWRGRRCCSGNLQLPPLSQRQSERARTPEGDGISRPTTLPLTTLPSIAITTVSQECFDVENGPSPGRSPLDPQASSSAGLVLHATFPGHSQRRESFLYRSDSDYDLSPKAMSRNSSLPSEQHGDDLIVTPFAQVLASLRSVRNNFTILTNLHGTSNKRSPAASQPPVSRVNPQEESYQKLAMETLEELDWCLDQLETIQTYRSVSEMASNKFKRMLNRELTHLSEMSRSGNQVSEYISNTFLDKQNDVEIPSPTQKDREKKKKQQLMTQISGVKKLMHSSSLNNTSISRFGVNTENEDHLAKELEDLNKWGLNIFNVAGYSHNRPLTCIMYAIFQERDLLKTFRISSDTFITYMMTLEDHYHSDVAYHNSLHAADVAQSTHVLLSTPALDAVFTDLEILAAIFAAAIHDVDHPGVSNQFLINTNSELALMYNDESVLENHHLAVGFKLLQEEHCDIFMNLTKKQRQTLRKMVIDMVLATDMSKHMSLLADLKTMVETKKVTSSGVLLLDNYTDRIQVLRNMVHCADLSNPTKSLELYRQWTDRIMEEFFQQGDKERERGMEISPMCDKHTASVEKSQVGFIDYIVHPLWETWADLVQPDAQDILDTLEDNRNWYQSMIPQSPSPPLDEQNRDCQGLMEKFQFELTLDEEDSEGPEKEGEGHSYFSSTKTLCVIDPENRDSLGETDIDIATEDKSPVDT
Chain of human PDE4D (Q08499 whole entry): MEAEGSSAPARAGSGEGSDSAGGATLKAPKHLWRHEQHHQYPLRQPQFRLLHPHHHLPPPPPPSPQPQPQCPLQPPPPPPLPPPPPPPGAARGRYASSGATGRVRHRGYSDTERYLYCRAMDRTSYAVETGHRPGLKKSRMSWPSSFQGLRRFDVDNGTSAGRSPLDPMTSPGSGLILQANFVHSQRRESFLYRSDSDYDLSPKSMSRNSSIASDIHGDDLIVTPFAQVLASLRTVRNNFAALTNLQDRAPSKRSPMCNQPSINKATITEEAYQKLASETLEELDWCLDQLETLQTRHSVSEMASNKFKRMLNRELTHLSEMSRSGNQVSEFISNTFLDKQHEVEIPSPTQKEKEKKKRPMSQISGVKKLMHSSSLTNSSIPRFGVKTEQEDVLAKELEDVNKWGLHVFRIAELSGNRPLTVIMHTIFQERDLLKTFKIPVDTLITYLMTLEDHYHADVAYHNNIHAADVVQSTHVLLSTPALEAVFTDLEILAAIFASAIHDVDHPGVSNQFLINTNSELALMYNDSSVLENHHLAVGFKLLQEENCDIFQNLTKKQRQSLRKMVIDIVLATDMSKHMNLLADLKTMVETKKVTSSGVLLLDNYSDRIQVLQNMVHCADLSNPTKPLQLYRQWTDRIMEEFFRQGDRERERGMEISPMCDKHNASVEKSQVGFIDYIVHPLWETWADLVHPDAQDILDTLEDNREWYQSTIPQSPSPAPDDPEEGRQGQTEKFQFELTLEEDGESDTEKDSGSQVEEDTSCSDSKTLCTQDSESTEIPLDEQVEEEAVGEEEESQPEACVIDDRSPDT

Compound | IC50 (human PDE4B) [µM] | IC50 (human PDE4D) [µM]
O=C(O)C1CCN1c1ccc(Cc2cc3scnc3c(-c3cccc(Cl)c3)c2F)cn1 (racemic) [BB-01, 1-{5-[4-(3-chloro-phenyl)-5-fluorobenzothiazol-6-ylmethyl]-pyridin-2-yl}-azetidine-2-carboxylic acid] | < 5 | < 5
O=C(O)[C@@H]1CCCN1c1ccc(Cc2cc3scnc3c(-c3cccc(Cl)c3)c2F)cn1 [BB-03, (S)-1-{5-[4-(3-chloro-phenyl)-5-fluoro-benzothiazol-6-ylmethyl]-pyridin-2-yl}-pyrrolidine-2-carboxylic acid] | < 5 | < 5
O=C(O)[C@@H]1CCN1c1ccc(Cc2cc3scnc3c(-c3cccc(Cl)c3)c2F)cn1 [BB-04, (S)-1-{5-[4-(3-chloro-phenyl)-5-fluoro-benzothiazol-6-ylmethyl]-pyridin-2-yl}-azetidine-2-carboxylic acid] | < 5 | < 5
O=C(O)[C@H]1CCN1c1ccc(Cc2cc3scnc3c(-c3cccc(Cl)c3)c2F)cn1 [BB-05, (R)-1-{5-[4-(3-chloro-phenyl)-5-fluoro-benzothiazol-6-ylmethyl]-pyridin-2-yl}-azetidine-2-carboxylic acid] | < 5 | < 5
Cc1nc2c(-c3cccc(Cl)c3)cc(Cc3ccc(N4CC[C@H]4C(=O)O)nc3)cc2s1 [BB-08, (S)-1-{5-[4-(3-chloro-phenyl)-2-methyl-benzothiazol-6-ylmethyl]-pyridin-2-yl}-azetidine-2-carboxylic acid] | < 5 | < 5
Cc1nc2c(-c3cccc(Cl)c3)cc(Cc3ccc(N4CC[C@@H]4C(=O)O)nc3)cc2s1 [BB-09, (R)-1-{5-[4-(3-chloro-phenyl)-2-methyl-benzothiazol-6-ylmethyl]-pyridin-2-yl}-azetidine-2-carboxylic acid] | < 5 | < 5
